Measured values published in patent US20180021360A1, “Combination Therapy Regimen For Treatment Of Selected HCV Genotypes” (JANSSEN PHARMACEUTICALS, INC., priority 2016, published 2018).

Assays:
CYP = CYP inhibition potential; details: any CYP
BCRP = target: T1, BCRP (Homo sapiens, UniProt Q9UNQ0); details: cited from earlier work
T1 sequence (Q9UNQ0 1-655): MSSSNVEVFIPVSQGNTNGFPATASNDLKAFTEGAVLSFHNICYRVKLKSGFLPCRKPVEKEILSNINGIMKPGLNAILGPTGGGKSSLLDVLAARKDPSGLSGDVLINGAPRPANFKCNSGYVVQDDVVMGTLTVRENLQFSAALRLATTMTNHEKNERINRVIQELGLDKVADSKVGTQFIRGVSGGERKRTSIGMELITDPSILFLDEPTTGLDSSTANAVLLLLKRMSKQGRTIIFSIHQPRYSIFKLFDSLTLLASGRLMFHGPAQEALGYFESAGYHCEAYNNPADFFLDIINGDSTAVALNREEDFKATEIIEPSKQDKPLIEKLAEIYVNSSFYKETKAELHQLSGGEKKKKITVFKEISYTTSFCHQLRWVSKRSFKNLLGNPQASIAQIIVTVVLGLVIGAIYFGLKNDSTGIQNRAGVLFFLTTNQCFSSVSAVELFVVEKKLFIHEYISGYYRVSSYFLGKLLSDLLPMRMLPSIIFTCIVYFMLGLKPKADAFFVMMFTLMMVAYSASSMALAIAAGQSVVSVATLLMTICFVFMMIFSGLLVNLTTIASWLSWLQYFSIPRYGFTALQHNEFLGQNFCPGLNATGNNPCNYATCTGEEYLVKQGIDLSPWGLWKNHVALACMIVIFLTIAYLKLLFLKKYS

BSEP = BSEP (Homo sapiens, UniProt O95342); details: cited from earlier work
Chain of BSEP (O95342 whole entry): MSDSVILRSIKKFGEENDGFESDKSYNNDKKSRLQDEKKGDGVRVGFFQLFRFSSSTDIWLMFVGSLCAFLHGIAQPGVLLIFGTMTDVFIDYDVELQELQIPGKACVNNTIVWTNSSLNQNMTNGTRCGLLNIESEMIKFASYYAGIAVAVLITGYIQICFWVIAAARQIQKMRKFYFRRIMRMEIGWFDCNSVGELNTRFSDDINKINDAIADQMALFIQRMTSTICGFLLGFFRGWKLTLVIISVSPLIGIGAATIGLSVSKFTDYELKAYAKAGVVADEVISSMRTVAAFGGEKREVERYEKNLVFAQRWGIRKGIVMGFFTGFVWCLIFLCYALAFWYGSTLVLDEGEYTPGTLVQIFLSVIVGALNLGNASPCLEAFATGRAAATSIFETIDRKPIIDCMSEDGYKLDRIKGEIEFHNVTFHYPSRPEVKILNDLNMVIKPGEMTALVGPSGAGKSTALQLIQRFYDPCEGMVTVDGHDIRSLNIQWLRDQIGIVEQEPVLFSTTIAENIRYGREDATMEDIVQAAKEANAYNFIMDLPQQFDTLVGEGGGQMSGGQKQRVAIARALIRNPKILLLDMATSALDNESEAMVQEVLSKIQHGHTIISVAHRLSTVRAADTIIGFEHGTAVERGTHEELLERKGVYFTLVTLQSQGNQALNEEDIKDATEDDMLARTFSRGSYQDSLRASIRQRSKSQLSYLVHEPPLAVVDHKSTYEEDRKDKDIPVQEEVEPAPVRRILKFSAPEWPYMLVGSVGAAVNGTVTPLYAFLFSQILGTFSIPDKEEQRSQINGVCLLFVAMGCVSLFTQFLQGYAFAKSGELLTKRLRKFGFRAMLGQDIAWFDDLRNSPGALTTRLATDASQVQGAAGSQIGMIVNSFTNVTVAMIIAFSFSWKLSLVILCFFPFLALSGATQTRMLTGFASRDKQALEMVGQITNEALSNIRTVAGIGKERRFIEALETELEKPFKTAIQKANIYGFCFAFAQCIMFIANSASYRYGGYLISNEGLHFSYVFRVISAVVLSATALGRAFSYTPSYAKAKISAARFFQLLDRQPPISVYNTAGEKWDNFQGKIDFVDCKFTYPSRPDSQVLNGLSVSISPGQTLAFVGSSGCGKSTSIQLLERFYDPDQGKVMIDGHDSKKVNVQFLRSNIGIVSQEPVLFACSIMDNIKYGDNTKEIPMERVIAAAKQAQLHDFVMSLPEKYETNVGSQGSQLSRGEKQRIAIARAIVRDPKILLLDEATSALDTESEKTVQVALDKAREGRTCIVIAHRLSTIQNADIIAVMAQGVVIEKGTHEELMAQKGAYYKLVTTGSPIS

OATP1B3 = target: T2, OATP1B3 (Homo sapiens, UniProt Q9NPD5); details: cited from earlier work
T2 sequence (Q9NPD5 1-702): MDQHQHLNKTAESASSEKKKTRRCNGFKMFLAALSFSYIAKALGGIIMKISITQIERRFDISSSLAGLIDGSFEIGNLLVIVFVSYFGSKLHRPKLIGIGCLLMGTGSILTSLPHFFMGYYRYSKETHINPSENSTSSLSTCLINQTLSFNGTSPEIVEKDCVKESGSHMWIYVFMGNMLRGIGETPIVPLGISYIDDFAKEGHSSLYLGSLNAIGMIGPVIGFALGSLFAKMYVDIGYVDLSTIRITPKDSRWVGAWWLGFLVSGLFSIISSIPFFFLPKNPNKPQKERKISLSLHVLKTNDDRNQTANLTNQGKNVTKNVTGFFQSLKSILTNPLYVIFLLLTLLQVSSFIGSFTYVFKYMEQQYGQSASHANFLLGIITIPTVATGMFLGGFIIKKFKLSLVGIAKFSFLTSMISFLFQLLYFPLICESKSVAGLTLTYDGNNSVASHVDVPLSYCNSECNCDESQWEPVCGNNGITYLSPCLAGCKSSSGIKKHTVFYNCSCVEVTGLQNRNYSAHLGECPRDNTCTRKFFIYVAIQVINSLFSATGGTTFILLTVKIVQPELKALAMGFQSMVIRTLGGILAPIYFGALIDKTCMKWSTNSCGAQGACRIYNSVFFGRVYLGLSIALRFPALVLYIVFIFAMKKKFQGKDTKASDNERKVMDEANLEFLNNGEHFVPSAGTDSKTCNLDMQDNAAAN

[1] = PK of single agents vs fixed dose combinations, single dose in healthy volunteers (Example 13); type: in vivo, human
Method: SMV (100 mg), ODV (50 mg), and Compound (III) (800 mg) were administered as three different formulations or together as single doses in vivo to healthy volunteers. The arms of the study included: • Arm 1 (Reference Arm): Single oral doses of single agents, one SMV 100-mg capsule, one ODV 50-mg tablet as granule layered solid dispersion with copovidone and poloxamers, and two Compound (III) 400-mg tablets, administered together. • Arm 2: Single oral dose of fixed dose combination (FDC02): SMV 100 mg+ODV 50 mg as a spray dried solid dispersion with HPMC-AS L in a ratio ODV/HPMC-AS L 1/1 w/w+Compound (III) 800 mg • Arm 3: Single oral dose of fixed dose combination (FDC04): SMV 100 mg+ODV 50 mg as a spray dried solid dispersion with HPMC-AS L in a ratio ODV/HPMC-AS L 1/3 w/w+Compound (III) 800 mg • Arm 4: Single oral dose of fixed dose combination (FDC01): SMV 100 mg+ODV 50 mg as a spray dried solid dispersion with copovidone and poloxamers+Compound (III) 800 mg
PK parameters, including Cmax, tmax, AUClast, and AUC∞ were measured for Compound (III), ODV, SMV, and metabolites Compound A-1 and Compound A-3 for each Arm of the study. Arms that included fixed dose combinations (FDC) (Arm 2, Arm 3, and Arm 4) were then compared to a single oral dose (Arm 1, the reference Arm). Table 9, Table 10, Table 11, Table 12 and Table 13 display relevant PK parameters and FIG. 9, FIG. 10, FIG. 11, FIG. 12, and FIG. 13 depict the plasma concentration over time of SMV, ODV, Compound A-1, and Compound A-3 for each Arm of the study.

**Q.** With `COC(=O)N[C@H](C(=O)N1[C@H](c2nc3cc(-c4cc5ccc4CCc4ccc(c(-c6ccc7[nH]c([C@@H]8C[C@@H]9CCCC[C@@H]9N8C(=O)[C@@H](NC(=O)OC)C(C)C)nc7c6)c4)CC5)ccc3[nH]2)C[C@@H]2CCCC[C@@H]21)C(C)C` [Odalasvir, methyl [(2,)-1-[(2S,3aS,7aS)-2-[6-[11-[2-[(2S,3aS,7aS)-1-[(2S)-2-[(methoxycarbonyl)amino]-3-methylbutanoyl]octahydro-1H-indol-2-yl]-1H-benzimidazol-6-yl]tricyclo[8.2.2.2^4,7]hexadeca-1(12),4,6,10,13,15-hexaen-5-yl]-1H-benzimidazol-2-yl]octahydro-1H-indol-1-yl]-3-methyl-1-oxobutan-2-yl]carbamate] as the compound, how does the CYP inhibition potential (CYP) read?
**A.** does not inhibit

**Q.** What about the “in vitro inhibition of BCRP” value (BCRP) of the same compound?
**A.** no inhibition

**Q.** What about the “in vitro inhibition of BSEP” value (BSEP) of the same compound?
**A.** no inhibition

**Q.** And the “in vitro inhibition of OATP1B3” value (OATP1B3)?
**A.** no inhibition

**Q.** What about the t1/2term ([1]; Arm 1 (reference): single agents, mean ± SD) of the same compound?
**A.** 168.6 ± 21.7 h

**Q.** What about the “Least Square Means Ratio, Cmax” value ([1]; Arm 2 (FDC02) vs reference) of the same compound?
**A.** 81.00%

**Q.** And the “AUC∞” value ([1]; Arm 2: FDC02, mean ± SD)?
**A.** 7040 ± 2130 ng·h/mL

**Q.** What about the t1/2term ([1]; Arm 2: FDC02, mean ± SD) of the same compound?
**A.** 169.0 ± 24.5 h

**Q.** And the t1/2term ([1]; Arm 3: FDC04, mean ± SD)?
**A.** 176.0 ± 29.5 h

**Q.** What about the Cmax ([1]; Arm 4: FDC01 (SMV 100 mg + ODV 50 mg spray dried with copovidone and poloxamers + Compound (III) 800 mg), mean ± SD) of the same compound?
**A.** 298 ± 81.7 ng/mL

**Q.** What about the AUClast ([1]; Arm 4: FDC01, mean ± SD) of the same compound?
**A.** 11127 ± 3354 ng·h/mL

**Q.** And the t1/2term ([1]; Arm 4: FDC01, mean ± SD)?
**A.** 167.8 ± 22.4 h
